# From patent EP1655608A1, “CFTR as a component of an autophagy signaling pathway, applications thereof to autophagic diseases, and determination of cystic fibrosis as an autophagic disease” (priority 2004, dated 2006)
# Legend:
# CFTR Cl^- channel = assay: Whole-cell patch-clamp Cl- currents in CFTR+/+ and CFTR-/- renal distal cells; format: cell-based, mouse
# Source text: To address the importance of CFTR in autophagy, renal cells derived from distal tubules or the proximal convoluted tubules of Wild type (WT or CFTR^+/+) or CFTR deficient (CFTR^-/-) mice (40) were isolated and immortalized with the pSV3 neo vector, as described below (55).
# Whole cell currents were monitored from Sertoli cells, CFTR^-/- and WT renal epithelial cells with an RK 400 amplifier (Biologic, Münster, Germany) as previously described (40). The bath (extracellular) solution consisted of 140 mM NMDGCl (N-methyl-D-glucamine chloride), 5 mM D-Glucose, 1 mM CaCl2, and 10 mM HEPES, pH 7.4. Patch pipette (intracellular) solution contained 140 mM NMDGCl, 5 mM D-Glucose, 5 mM EGTA, 5 mM MgATP, and 10 mM HEPES, pH 7.4. Osmolarity of both solutions was adjusted to 280 mOSM by adding mannitol. […] To generate whole cell current-voltage (I-V) relationship, membrane currents resulting from voltage stimuli were recorded for at least 3 min and analysed using an IBM-AT-compatible computer equipped with Digidata 1200 interface (Axon Instruments) and pCLAMP software (versions 5.51 and 6.0, Axon Instruments), respectively. Statistics-Results are expressed as mean ± S.E. of n observations using the Student's t test.
# CFTR-EGFP = assay: Subcellular distribution of CFTR-EGFP by confocal microscopy; format: cell-based, hamster; conditions: BHK cells, Lindane 24 h, NH4Cl 5 mM in medium
# Experimental: BHK-21 (Baby hamster kidney epithelial cells, ATCC) stably expressing CFTR-EGFP cell-line was maintained in Dulbecco's modified Eagle's medium (DMEM, GIBCO) containing 10% fetal calf serum (GIBCO).
# (§1) Autophagy was induced either by starvation or by treatment with Lindane under nutrient-rich condition. For Lindane treatment, cells were serum-starved for 2-16 hours in DMEM/Ham's F12 (1:1, GIBCO #61965-026: F12 GIBCO #31765-027) supplemented with either 1% Insulin-Transferrin-SeleniumA (GIBCO #51300-044) or 0.1% bovine serum albumin (A7030, Sigma) and treated with Lindane (50 µM, Sigma, H4500).
# p38 = p38 / Jun kinase activation by Western blotting of Sertoli cell lysates; format: cell-based, mouse; conditions: Anisomycin 10 µg/ml, 15 min; phosphorylation of p38 and MK2
# Source text: After stripping, equal loadings of proteins were verified by reprobing the blots with anti-ERK1 (Santa Cruz Biotechnology).
# Sertoli cells = assay: Cell death and apoptotic features in Lindane-treated Sertoli cells; format: cell-based, mouse
# Experimental: as §1
# The ultrastructural changes caused by Lindane or starvation in Sertoli and renal cells were analysed by transmission electron microscopy, as previously described (57). […] Cell pellets were then rinsed in cacodylate buffer, postfixed in 1% OsO4 for 1 h at 4°C, dehydrated through graded ethanol washes, and embedded in epoxy resin. Oriented […] sections were obtained with diamond knives, and representative areas were chosen for ultra-thin sectioning. Thin […] sections were mounted on copper mesh grids, stained with uranyl acetate and lead citrate, and examined on a JEOL 1200 EXII electron microscope. 30-50 micrographs were taken randomly from each sample at primary magnification × 10,000.
# CFTR Δex10 = assay: Whole-cell patch-clamp Cl- currents in renal proximal PCT cells; format: cell-based, mouse
# Experimental: Whole cell currents were monitored from Sertoli cells, CFTR^-/- and WT renal epithelial cells with an RK 400 amplifier (Biologic, Münster, Germany) as previously described (40). The bath (extracellular) solution consisted of 140 mM NMDGCl (N-methyl-D-glucamine chloride), 5 mM D-Glucose, 1 mM CaCl2, and 10 mM HEPES, pH 7.4. Patch pipette (intracellular) solution contained 140 mM NMDGCl, 5 mM D-Glucose, 5 mM EGTA, 5 mM MgATP, and 10 mM HEPES, pH 7.4. Osmolarity of both solutions was adjusted to 280 mOSM by adding mannitol. These solutions were designed to study Cl^- currents because Cl^- is the sole permeant ion in these conditions and to prevent Ca^2+ activated Cl^- currents by the addition of EGTA in the patch solution. After establishment of whole cell configuration, cells were stimulated by the addition of Lindane (50 µM), FSK (10 µM), vehicle (Me2S0 or ethanol) in the absence or the presence of NPPB (0.1mM), DIDS (4,4'-diisothiocyanatostilbene-2,2'-disulfonic acid, 1 mM, Sigma), glibenclamide (0.1mM, Sigma) or PD98059 (10 µM) in the bath solution. The cell membrane potential was clamped at -50mV and 400 ms pulses were applied from -100 to +120 mV with increments of 20 mV every 2 s. To generate whole cell current-voltage (I-V) relationship, membrane currents resulting from voltage stimuli were recorded for at least 3 min and analysed using an IBM-AT-compatible computer equipped with Digidata 1200 interface (Axon Instruments) and pCLAMP software (versions 5.51 and 6.0, Axon Instruments), respectively. Statistics-Results are expressed as mean ± S.E. of n observations using the Student's t test.
# Sertoli 42GPA9 cells = assay: Autophagic vacuolation of Sertoli cells (light, electron and confocal microscopy); format: cell-based, mouse
# Experimental: Autophagy was induced either by starvation or by treatment with Lindane under nutrient-rich condition.
# When bafilomycin A1 (BafA1, V-ATPase-specific inhibitor, 100 nM, Sigma); Park Davis Inhibitor PD98059 (MEK1-specific inhibitor, 10 µM, Cell Signaling), H89 (PKA inhibitor, 5 µM, Calbiochem), 3-Methyladenine (3 MA, autophagy-specific inhibitor, 10-30 mM, Sigma) or NPPB [5-nitro-2-(3-phenylpropylamino) benzoic acid, Cl^- channel blocker, 25 µM, Sigma] was used, it was added to the starvation medium for 90 min, prior to Lindane addition or nutrient deprivation.
# The ultrastructural changes caused by Lindane or starvation in Sertoli and renal cells were analysed by transmission electron microscopy, as previously described (57). […] Cell pellets were then rinsed in cacodylate buffer, postfixed in 1% OsO4 for 1 h at 4°C, dehydrated through graded ethanol washes, and embedded in epoxy resin. Oriented […] sections were obtained with diamond knives, and representative areas were chosen for ultra-thin sectioning. […] 30-50 micrographs were taken randomly from each sample at primary magnification × 10,000.
# Sertoli cells seeded on glass coverslips were transiently transfected with EGFP-Rab7 or MEK1^+-HA expression plasmids using Fugene 6 reagent (Roche), washed and allowed to recover overnight before addition of Lindane (50 µM). […] To determine the pH of the Lindane-induced vacuoles, living cells were stained with acridine-orange (5 µg/ml, Sigma), a membrane-permeable weak base whose fluorescence shifts from green at neutral pH to red in acidic compartments (59). 10 min later, cells were washed and directly observed under a confocal microscope.
compound,measurement,setting,value
"Cl[C@H]1[C@H](Cl)[C@@H](Cl)[C@@H](Cl)[C@H](Cl)[C@H]1Cl [Lindane, γ-hexachlorocyclohexane]",induction of Cl^- currents in CFTR^+/+ renal distal cells,CFTR Cl^- channel; Lindane 50 µM,induction of Cl^- currents
same,reversed potential of induced currents,"CFTR Cl^- channel; renal distal cells, n = 8",~ 0 mV
same,distribution of CFTR,CFTR-EGFP,redistributed from plasma membrane to vacuoles
same,effect on Anisomycin-induced p38 activity,p38,not ascribed to p38 inhibition
same,dead cells,Sertoli cells; Lindane 50 µM,little if any dead cells
same,propidium iodide staining of vacuolated cells,"Sertoli cells; Lindane 50 µM, late stages",did not stain with propidium iodide
same,"apoptotic features (caspase 3 activation, PARP cleavage, chromatin condensation, nuclear pyknosis, mitochondria degeneration)",Sertoli cells; Lindane-treated cells,absence of several apoptotic morphological and biochemical features
same,cell lysis on longer exposure,Sertoli cells; exposure for four days,not associated with cell lysis
same,induction of Cl- current in PCT cells,"CFTR Δex10; CFTR^+/+ PCT cells, Lindane 50 µM, forskolin 10 µM",induced a Cl- current
same,Lindane-induced Cl- current in CFTR^-/- PCT cells,CFTR Δex10; CFTR^-/- PCT cells,total inhibition
same,anion selectivity sequence of induced current,CFTR Δex10; PCT cells,Br^-≥ Cl^- >>I^-
same,reversal potential of induced current,CFTR Δex10; PCT cells,~ 0 mV
same,size of autophagic vacuoles,"Sertoli 42GPA9 cells; Lindane 50 µM, 24 h, electron microscopy",2-20 µm^2
same,autophagic vacuoles observed per cell,"Sertoli 42GPA9 cells; Lindane 50 µM, 24 h, electron microscopy, n = 20 cells, average",~ 50
same,induction of vacuolation / autophagy by the chemical alone,"Sertoli 42GPA9 cells; Lindane 50 µM, DDT 1.8 µM, Bϕ 90 µM, PCP 15 µM, SB203580 10 µM, NH4Cl 5 mM, 24 h",powerful activator of autophagy
same,time of maximal vacuolation,Sertoli 42GPA9 cells; Lindane treatment,24 to 48 h
same,reversibility of vacuolation,Sertoli 42GPA9 cells; upon removal of the chemical,reversible upon Lindane removal
